Test [1] concerns the target T1, Human PDGFRα, cytoplasmic domain (GST-PDGFRα) (Homo sapiens, UniProt P16234).
T1 construct: made in house
The test can be described thus: Human PDGFRα biochemical inhibition assay (off-chip Mobility Shift Assay).

Test [2] addresses T2, Human PDGFRβ, cytoplasmic domain (GST-PDGFRβ) (Homo sapiens, UniProt P09619).
T2 construct: made in house
Description: Human PDGFRβ biochemical inhibition assay (off-chip Mobility Shift Assay). The method in brief:
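GST-tagged cytoplasmic domain (aa 557-1106) from baculovirus was incubated 1 h at room temperature with compound, CSKtide, ATP at Km and Mg²⁺ in HEPES buffer, pH 7.5. Phosphorylated and unphosphorylated peptide were separated by off-chip mobility shift, and the product ratio P/(P+S) gave percent inhibition.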

T1 sequence (P16234 550-1089 T674I): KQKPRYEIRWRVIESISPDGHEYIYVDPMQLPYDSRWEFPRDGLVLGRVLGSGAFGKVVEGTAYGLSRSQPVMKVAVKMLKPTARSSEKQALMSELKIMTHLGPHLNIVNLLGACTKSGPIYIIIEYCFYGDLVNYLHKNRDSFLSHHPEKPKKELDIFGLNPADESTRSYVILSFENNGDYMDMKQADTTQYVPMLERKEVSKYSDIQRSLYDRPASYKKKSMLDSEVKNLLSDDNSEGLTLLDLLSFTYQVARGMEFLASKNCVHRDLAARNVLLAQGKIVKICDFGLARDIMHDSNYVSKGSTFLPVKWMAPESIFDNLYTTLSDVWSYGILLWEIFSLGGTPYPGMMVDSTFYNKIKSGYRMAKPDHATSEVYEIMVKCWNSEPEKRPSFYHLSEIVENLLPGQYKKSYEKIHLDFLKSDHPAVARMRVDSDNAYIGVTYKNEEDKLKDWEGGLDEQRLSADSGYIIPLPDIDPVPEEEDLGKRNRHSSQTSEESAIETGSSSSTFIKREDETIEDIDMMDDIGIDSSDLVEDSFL
T2 sequence (P09619 with tags, fused parts or gaps): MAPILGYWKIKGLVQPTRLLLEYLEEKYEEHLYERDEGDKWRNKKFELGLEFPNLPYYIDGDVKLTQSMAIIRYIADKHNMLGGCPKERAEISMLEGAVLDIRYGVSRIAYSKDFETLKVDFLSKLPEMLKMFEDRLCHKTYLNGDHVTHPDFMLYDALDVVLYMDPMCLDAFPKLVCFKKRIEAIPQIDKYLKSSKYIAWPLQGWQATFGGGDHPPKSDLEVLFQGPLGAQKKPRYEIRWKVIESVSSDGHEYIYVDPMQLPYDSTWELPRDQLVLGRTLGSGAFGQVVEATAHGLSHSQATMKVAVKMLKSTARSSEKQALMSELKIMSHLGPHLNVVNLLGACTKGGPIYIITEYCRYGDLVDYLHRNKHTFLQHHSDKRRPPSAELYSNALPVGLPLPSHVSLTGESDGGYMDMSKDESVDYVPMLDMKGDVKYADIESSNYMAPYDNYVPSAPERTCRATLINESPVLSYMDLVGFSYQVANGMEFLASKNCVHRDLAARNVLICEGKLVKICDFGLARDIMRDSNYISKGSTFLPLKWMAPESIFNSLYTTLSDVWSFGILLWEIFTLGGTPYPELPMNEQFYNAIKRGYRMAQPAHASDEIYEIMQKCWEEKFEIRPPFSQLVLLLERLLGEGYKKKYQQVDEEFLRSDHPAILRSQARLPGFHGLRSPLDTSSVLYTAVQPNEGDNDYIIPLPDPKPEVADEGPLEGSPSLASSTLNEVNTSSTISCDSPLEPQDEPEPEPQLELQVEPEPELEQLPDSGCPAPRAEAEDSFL

Usually IC50 stands for the point on the concentration scale where inhibition reaches its midpoint. For `CCn1cc2ncc(N[C@@H](C)c3cccc(NC(=O)c4ccc(CN5CC6(COC6)C5)c(C5CC5)c4)c3)nc2n1` [Compound 505, (S)-4-((2-oxa-6-azaspiro[3.3]heptan-6-yl)methyl)-3-cyclopropyl-N-(3-(1-((2-ethyl-2H-pyrazolo[3,4-b]pyrazin-6-yl)amino)ethyl)phenyl)benzamide], the IC50 in test [1] and in test [2] was under 300 nM throughout.
As to `CCn1cc2ncc(N[C@@H](C)c3cccc(NC(=O)c4ccc(CN5CC[C@H](F)C5)c(C)c4)c3)nc2n1` [Compound 493, N-(3-((S)-1-((2-ethyl-2H-pyrazolo[3,4-b]pyrazin-6-yl)amino)ethyl)phenyl)-4-(((S)-3-fluoropyrrolidin-1-yl)methyl)-3-methylbenzamide], the IC50 in test [1] and in test [2] was under 300 nM each time.
With `CCn1cc2ncc(N[C@@H](C)c3cccc(NC(=O)c4ccc(C(=O)N5CCN(C)CC5)c(Cl)c4)c3)nc2n1` [Compound 466, (S)-3-chloro-N-(3-(1-((2-ethyl-2H-pyrazolo[3,4-b]pyrazin-6-yl)amino)ethyl)phenyl)-4-(4-methylpiperazine-1-carbonyl) benzamide], the values for the IC50 in test [1] and in test [2] were under 300 nM and 300 to 1000 nM, respectively.
For `CCn1cc2ncc(N[C@@H](C)c3cc(NC(=O)c4cnn(CCF)c4)ccc3F)nc2n1` [Compound 311, (S)-N-(3-(1-((2-ethyl-2H-pyrazolo[3,4-b]pyrazin-6-yl)amino)ethyl)-4-fluorophenyl)-1-(2-fluoroethyl)-1H-pyrazole-4-carboxamide], the half-maximal inhibitory concentration (IC50) in test [1] and in test [2] was under 300 nM each time.
In the case of `Cc1cncc(C(=O)Nc2cccc([C@H](C)Nc3cnc4cnn(-c5cccnc5)c4n3)c2)c1` [Compound 273, (S)-5-methyl-N-(3-(1-((1-(pyridin-3-yl)-1H-pyrazolo[3,4-b]pyrazin-6-yl)amino)ethyl)phenyl)nicotinamide], the IC50 in test [1] and in test [2] was under 300 nM throughout.
With `Cc1c[nH]c2ncc(N[C@@H](C)c3cccc(NC(=O)c4cnc(C5CC5)s4)c3)nc12` [Compound 571, (S)-2-cyclopropyl-N-(3-(1-((7-methyl-5H-pyrrolo[2,3-b]pyrazin-2-yl)amino)ethyl)phenyl)thiazole-5-carboxamide], the IC50 in test [1] and in test [2] was under 300 nM each time.
Turning to `CSc1ccc(C(=O)Nc2cccc([C@H](C)Nc3cnc4cnn(C)c4n3)c2)cc1C` [Compound 222, (S)-3-methyl-N-(3-(1-((1-methyl-1H-pyrazolo[3,4-b]pyrazin-6-yl)amino)ethyl)phenyl)-4-(methylthio)benzamide], the IC50 in test [1] and in test [2] was under 300 nM in each case.
Take `CC(C)c1cc(C(=O)Nc2cccc([C@H](C)Nc3cnc4cnn(C)c4n3)c2)no1` [Compound 142, (S)-5-isopropyl-N-(3-(1-((1-methyl-1H-pyrazolo[3,4-b]pyrazin-6-yl)amino)ethyl)phenyl)isoxazole-3-carboxamide]: the IC50 in test [1] and in test [2] was under 300 nM each time.
In the case of `C[C@H](Nc1cnc2cc(C(F)F)sc2n1)c1cc(NC(=O)c2ccc(C(F)(F)F)nc2)ccc1F` [Compound 618, (S)-N-(3-(1-((6-(difluoromethyl)thieno[2,3-b]pyrazin-3-yl)amino)ethyl)-4-fluorophenyl)-6-(trifluoromethyl)nicotinamide], the IC50 in test [1] and in test [2] was under 300 nM in each case.
As for `C[C@H](Nc1cnc2[nH]ccc2n1)c1cc(NC(=O)c2cnn(C3CCC3)c2)ccc1F` [Compound 597, (S)-N-(3-(1-((5H-pyrrolo[2,3-b]pyrazin-2-yl)amino)ethyl)-4-fluorophenyl)-1-cyclobutyl-1H-pyrazole-4-carboxamide], the IC50 in test [1] and in test [2] was under 300 nM each time.
Regarding `CCn1cc2ncc(N[C@@H](C)c3cccc(NC(=O)c4ccc(CN5CCN(C)CC5)c(C(F)(F)F)c4)c3)nc2n1` [Compound 423, (S)-N-(3-(1-((2-ethyl-2H-pyrazolo[3,4-b]pyrazin-6-yl)amino)ethyl)phenyl)-4-((4-methylpiperazin-1-yl)methyl)-3-(trifluoromethyl)benzamide], the IC50 in test [1] and in test [2] was under 300 nM each time.
As for `CCn1cc2ncc(N[C@@H](C)c3cccc(NC(=O)Cc4ccc(F)cn4)c3)nc2n1` [Compound 647, (S)-N-(3-(1-((2-ethyl-2H-pyrazolo[3,4-b]pyrazin-6-yl)amino)ethyl)phenyl)-2-(5-fluoropyridin-2-yl)acetamide], the IC50 in test [1] is under 300 nM; in test [2], at least 1000 nM.
Turning to `CCn1cc2ncc(N[C@@H](C)c3cc(NC(=O)Cc4ccc(C5CCC5)cn4)ccc3C)nc2n1` [Compound 669, (S)-2-(5-cyclobutylpyridin-2-yl)-N-(3-(1-((2-ethyl 2H-pyrazolo[3,4-b]pyrazin-6-yl)amino)ethyl)-4-methylphenyl) acetamide], the half-maximal inhibitory concentration (IC50) is under 300 nM in test [1] and 300 to 1000 nM in test [2].
On to `CCn1cc2ncc(N[C@@H](C)c3cccc(NC(=O)c4cnc(-c5cnn(C)c5)s4)c3)nc2n1` [Compound 342, (S)-N-(3-(1-((2-ethyl-2H-pyrazolo[3,4-b]pyrazin-6-yl)amino)ethyl)phenyl)-2-(1-methyl-1H-pyrazol-4-yl) thiazole-5-carboxamide], for which the results for the IC50 in test [1] and in test [2] were 300 to 1000 nM and at least 1000 nM, respectively.
Take `Cc1cc(C(=O)Nc2cccc([C@H](C)Nc3cnc4cnn(C)c4n3)c2)ccc1C(=O)OCCO` [Compound 257, 2-hydroxyethyl (S)-2-methyl-4-((3-(1-((1-methyl-1H-pyrazolo[3,4-b]pyrazin-6-yl)amino)ethyl)phenyl)carbamoyl) benzoate]: the IC50 in test [1] and in test [2] was under 300 nM in each case.
As for `CCn1cc2ncc(N[C@@H](C)c3cccc(NC(=O)c4cnc5[nH]nc(C)c5c4)c3)nc2n1` [Compound 61, (S)-N-(3-(1-((2-ethyl-2H-pyrazolo[3,4-b]pyrazin-6-yl)amino)ethyl)phenyl)-3-methyl-1H-pyrazolo[3,4-b]pyridine-5-carboxamide], the 50% inhibitory concentration (IC50) in test [1] is 300 to 1000 nM; in test [2], at least 1000 nM.
In the case of `CCn1cc(C(=O)Nc2cccc([C@H](C)Nc3cnc4cnn(C)c4n3)c2)cn1` [Compound 153, (S)-1-ethyl-N-(3-(1-((1-methyl-1H-pyrazolo[3,4-b]pyrazin-6-yl)amino)ethyl)phenyl)-1H-pyrazole-4-carboxamide], the half-maximal inhibitory concentration (IC50) in test [1] and in test [2] was under 300 nM throughout.
As to `Cc1cncc(C(=O)Nc2cccc([C@H](C)Nc3cncc4nn(C)cc34)c2)c1` [Compound 747, (S)-5-methyl-N-(3-(1-((2-methyl-2H-pyrazolo[3,4-c]pyridin-4-yl)amino)ethyl)phenyl)nicotinamide], the IC50 in test [1] and in test [2] was at least 1000 nM each time.
As to `COc1cc(C(=O)Nc2cccc([C@H](C)Nc3cnc4cnn(C)c4n3)c2)cnc1Cl` [Compound 249, (S)-6-chloro-5-methoxy-N-(3-(1-((1-methyl-1H-pyrazolo[3,4-b]pyrazin-6-yl)amino)ethyl)phenyl)nicotinamide], the IC50 in test [1] and in test [2] was under 300 nM in each case.
Take `Cc1n[nH]c2ncc(N[C@@H](C)c3cccc(NC(=O)c4cc(C(F)(F)F)n(C)n4)c3)nc12` [Compound 547, (S)-1-methyl-N-(3-(1-((3-methyl-1H-pyrazolo[3,4-b]pyrazin-5-yl)amino)ethyl)phenyl)-5-(trifluoromethyl)-1H-pyrazole-3-carboxamide]: the IC50 in test [1] and in test [2] was under 300 nM in each case.
With `CCn1cc2ncc(N[C@@H](C)c3cccc(NC(=O)c4ccc(CN5CCCC(F)(F)C5)c(C)c4)c3)nc2n1` [Compound 474, (S)-4-((3,3-difluoropiperidin-1-yl)methyl)-N-(3-(1-((2-ethyl-2H-pyrazolo[3,4-b]pyrazin-6-yl)amino)ethyl)phenyl)-3-methylbenzamide], the IC50 in test [1] and in test [2] was under 300 nM in each case.
As to `COc1ccc2ncc(N[C@@H](C)c3cccc(NC(=O)c4cncc(C)c4)c3)nc2c1` [Compound 32, (S)-N-(3-(1-((7-methoxyquinoxalin-2-yl)amino)ethyl)phenyl)-5-methylnicotinamide], the IC50 in test [1] and in test [2] was under 300 nM in each case.
On to `CNc1ncc(C(=O)Nc2cccc([C@H](C)Nc3cnc4cnn(C)c4n3)c2)cc1C` [Compound 130, (S)-5-methyl-N-(3-(1-((1-methyl-1H-pyrazolo[3,4-b]pyrazin-6-yl)amino)ethyl)phenyl)-6-(methylamino) nicotinamide], for which the IC50 in test [1] and in test [2] was under 300 nM each time.
Regarding `CCn1cc2ncc(N[C@@H](C)c3cccc(NC(=O)c4ccc(CN5CC6(C5)CC6(F)F)c(C)c4)c3)nc2n1` [Compound 461], the IC50 was under 300 nM in test [1] and 300 to 1000 nM in test [2].
For the compound `CCn1cc2ncc(N[C@@H](C)c3cc(NC(=O)c4ccc(OC(F)(F)F)nc4)ccc3F)nc2n1` [Compound 303, (S)-N-(3-(1-((2-ethyl-2H-pyrazolo[3,4-b]pyrazin-6-yl)amino)ethyl)-4-fluorophenyl)-6-(trifluoromethoxy)nicotinamide], the IC50 in test [1] and in test [2] was under 300 nM throughout.
For `COc1ccc(C(=O)Nc2cccc([C@H](C)Nc3cnc4[nH]cc(-c5cnn(C)c5)c4n3)c2)cn1` [Compound 566, (S)-6-methoxy-N-(3-(1-((7-(1-methyl-1H-pyrazol-4-yl)-5H-pyrrolo[2,3-b]pyrazin-2-yl)amino)ethyl)phenyl) nicotinamide], the IC50 in test [1] and in test [2] was under 300 nM each time.
Turning to `CCn1cc2ncc(N[C@@H](C)c3cccc(NC(=O)c4ccc(CN5CCCC5)nc4)c3)nc2n1` [Compound 388, (S)-N-(3-(1-((2-ethyl-2H-pyrazolo[3,4-b]pyrazin-6-yl)amino)ethyl)phenyl)-6-(pyrrolidin-1-ylmethyl) nicotinamide], the IC50 in test [1] and in test [2] was at least 1000 nM throughout.

The values are drawn from patent publication US20230102554A1 (GB002, INC., priority 2019, published 2023).
